Experimental data taken from article PMC11460631, “Inhibition of transient receptor potential vanilloid 3 channels by antimalarial hydroxychloroquine alleviates TRPV3-dependent dermatitis” (The Journal of Biological Chemistry, 2024).

Biological target: T1, TRPV3 mutant W692C (Homo sapiens, UniProt Q8NET8, W692C)
T1 construct: YFP or GFP; expressed in transfected cells; host or cells: HEK293T
T1 sequence (Q8NET8 1-790 W692C): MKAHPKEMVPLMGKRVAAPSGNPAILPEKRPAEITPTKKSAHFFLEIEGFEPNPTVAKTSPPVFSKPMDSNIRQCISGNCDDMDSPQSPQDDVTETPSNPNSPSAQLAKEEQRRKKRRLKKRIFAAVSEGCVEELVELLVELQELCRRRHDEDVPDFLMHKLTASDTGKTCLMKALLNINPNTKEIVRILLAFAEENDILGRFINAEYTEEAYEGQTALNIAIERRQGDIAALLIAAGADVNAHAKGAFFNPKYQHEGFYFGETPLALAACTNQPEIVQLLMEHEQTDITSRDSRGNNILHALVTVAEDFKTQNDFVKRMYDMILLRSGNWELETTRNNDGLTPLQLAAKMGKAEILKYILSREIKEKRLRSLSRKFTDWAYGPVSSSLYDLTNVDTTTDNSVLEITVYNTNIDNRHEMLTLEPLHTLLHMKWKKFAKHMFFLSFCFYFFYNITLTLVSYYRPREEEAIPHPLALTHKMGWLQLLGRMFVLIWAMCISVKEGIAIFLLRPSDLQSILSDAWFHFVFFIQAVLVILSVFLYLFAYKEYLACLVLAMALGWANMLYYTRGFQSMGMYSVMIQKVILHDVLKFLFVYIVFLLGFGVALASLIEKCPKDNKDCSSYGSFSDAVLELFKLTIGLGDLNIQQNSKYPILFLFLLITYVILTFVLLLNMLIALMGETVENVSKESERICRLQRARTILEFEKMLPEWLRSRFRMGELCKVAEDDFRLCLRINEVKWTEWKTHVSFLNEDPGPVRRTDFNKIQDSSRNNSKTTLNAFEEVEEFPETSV
Assay: Whole-cell recording of gain-of-function TRPV3 mutant W692C
Format: cell-based
Conditions: concentration gradients of HCQ, ± 80 mV
Method: To test the effect of HCQ on carvacrol-induced skin inflammation, we evaluated the inhibitory effect of HCQ on TRPV3 activated by carvacrol in vitro.
Figure 5 HCQ can attenuate mice back skin lesions induced by TRPV3 agonist carvacrol.A, representative whole-cell recording of TRPV3 in response to 1 mM carvacrol (Car), the mixture of 1 mM Car, and concentration gradients of HCQ with the holding potential of ± 80 mV. B, concentration–response curve of Car and HCQ on TRPV3 channels fitted by Hill equation. Data were shown as mean ± SEM (n = 6 cells). C, representative whole-cell recording of W692C mutants in response to concentration gradients of HCQ with the holding potential of ± 80 mV. D, concentration–response curve of HCQ on W692C mutants fitted by Hill equation. Data were shown as mean ± SEM (n = 4 cells). E, paradigm of generation of AD-like mice model induced by Car. […] A 200 μl volume of drug was applied to each mouse. Green lines indicate the thickness of the epidermis. Upper panel, the scale bar represents 2 cm; bottom panel, scale bar represents 100 μm. G–I, quantification of thickness (G), erythema (H), dryness, and scaling (I), (n = 6 mice, mean ± SEM), thickness: F (3, 20) = 20.68, p < 0.0001; erythema: F (3, 20) = 55.10, p < 0.0001; dryness and scaling: F (3, 20) = 39.61, p < 0.0001 by one-way ANOVA followed using Tukey's post hoc test. […]

effect on activity of gain-of-function TRPV3 mutant W692C: inhibited
SMILES: CCN(CCO)CCCC(C)Nc1ccnc2cc(Cl)ccc12 (stereo not shown) [HCQ, hydroxychloroquine]
